Structures can show the parent of a compound that is named as a salt.

This test concerns the target T1, human recombinant SHP2 (Homo sapiens, UniProt Q06124).
T1 sequence (Q06124 1-593): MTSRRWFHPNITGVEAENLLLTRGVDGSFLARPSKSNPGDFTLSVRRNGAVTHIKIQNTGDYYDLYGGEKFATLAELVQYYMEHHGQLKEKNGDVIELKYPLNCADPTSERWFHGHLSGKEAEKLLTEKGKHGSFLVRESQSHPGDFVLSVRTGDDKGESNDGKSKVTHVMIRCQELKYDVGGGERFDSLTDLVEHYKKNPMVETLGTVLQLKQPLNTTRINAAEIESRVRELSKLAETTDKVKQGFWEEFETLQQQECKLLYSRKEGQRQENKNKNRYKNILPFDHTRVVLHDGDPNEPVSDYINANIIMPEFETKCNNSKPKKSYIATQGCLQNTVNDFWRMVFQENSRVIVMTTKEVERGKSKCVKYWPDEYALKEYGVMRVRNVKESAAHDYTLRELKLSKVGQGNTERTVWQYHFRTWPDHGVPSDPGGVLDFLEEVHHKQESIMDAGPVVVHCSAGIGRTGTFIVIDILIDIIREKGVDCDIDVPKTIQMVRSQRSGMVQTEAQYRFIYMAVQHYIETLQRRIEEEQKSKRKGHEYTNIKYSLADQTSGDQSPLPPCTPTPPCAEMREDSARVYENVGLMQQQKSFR
Description: Protein Tyrosine Phosphatase (PTP) assay and IC50 measurements of inhibitors (DiFMUP fluorescence). Format: biochemical. The note with it: 100 ng/mL human recombinant SHP2, 0.5 μM activating peptide IRS1_pY1172(dPEG8)pY1222, substrate DiFMUP 200 μM, room temperature; read-out: IC50 (SHP2 inhibition). The protocol: Example E: Protein Tyrosine Phosphatase (PTP) Assay and IC50 Measurements of Inhibitors
The phosphatase activity of SHP2 was monitored using the surrogate substrate DiFMUP in a fluorescence assay format. The phosphatase reactions were performed at room temperature in 96-well black polystyrene plate, flat bottom plate using a final reaction volume of 100 μL with the following assay buffer conditions: 60 mM HEPES, pH 7.2, 75 mM NaCl, 75 mM KCl, 1 mM EDTA, 0.05% Tween-20, 5 mM DTT.
To determine the IC50 of a compound, an eight-point dose response curve was generated in duplicate. Compounds were incubated at concentrations ranging from 0 μM to 10 μM with 100 ng/mL of human recombinant SHP2 and 0.5 μM of activating peptide IRS1_pY1172(dPEG8)pY1222 (sequence H2N-LN(pY)IDLDLV-(dPEG8)LST(pY)ASINFQK-amide) (SEQ ID NO 1). After 30 min incubation at room temperature (23-27° C.), the surrogate substrate DiFMUP (200 μM) was added to the reaction and incubated at room temperature for 30 min. The fluorescence signal was monitored using a microplate reader (Spectramax M5e, […]) using excitation and emission wavelengths of 340 and 450 nm, respectively. The inhibitor dose-response curves were analyzed using SoftmaxPro v5.2 software.
As usually defined, the IC50 is the point on the concentration scale where inhibition reaches its midpoint. On to `Cc1cccc(-c2ncc(N3C[C@@H]4C[C@](C)(N)C[C@@H]4C3)nc2N)c1Cl` [Example 1, (3aR,5r,6aS)-2-(6-amino-5-(2-chloro-3-methylphenyl)pyrazin-2-yl)-5-methyloctahydrocyclopenta[c]pyrrol-5-amine hydrochloride salt], for which the IC50 was below 9 µM.

On to `C[C@]1(N)C[C@H]2CN(c3cnc(-c4cccc(Cl)c4Cl)c(N)n3)C[C@H]2C1` [Example 2, (3aR,5r,6aS)-2-(6-amino-5-(2,3-dichlorophenyl)pyrazin-2-yl)-5-methyloctahydrocyclopenta[c]pyrrol-5-amine], for which the IC50 is below 9 µM.

As for `C[C@]1(N)C[C@H]2CN(c3cnc(-c4cccnc4Cl)c(N)n3)C[C@H]2C1` [Example 4, (3aR,5r,6aS)-2-(6-amino-5-(2-chloropyridin-3-yl)pyrazin-2-yl)-5-methyloctahydrocyclopenta[c]pyrrol-5-amine], the IC50 is below 9 µM.

With `C[C@]1(N)C[C@H]2CN(c3cnc(-c4cccc(Cl)c4F)c(N)n3)C[C@H]2C1` [Example 5, (3aR,5r,6aS)-2-(6-amino-5-(3-chloro-2-fluorophenyl)pyrazin-2-yl)-5-methyloctahydrocyclopenta[c]pyrrol-5-amine], the IC50 is below 9 µM. In the case of `C[C@@]1(N)C[C@H]2CN(c3cnc(-c4cccc(Cl)c4Cl)c(N)n3)C[C@H]2C1` [Example 7, (3aR,5s,6aS)-2-(6-amino-5-(2,3-dichlorophenyl)pyrazin-2-yl)-5-methyloctahydrocyclopenta[c]pyrrol-5-amine], the IC50 is below 9 µM. Take `Cc1cccc(-c2ncc(N3C[C@@H]4C[C@@](C)(N)C[C@@H]4C3)nc2N)c1Cl` [Example 8, (3aR,5s,6aS)-2-(6-amino-5-(2-chloro-3-methylphenyl)pyrazin-2-yl)-5-methyloctahydrocyclopenta[c]pyrrol-5-amine]: the concentration for half-maximal inhibition (IC50) is below 9 µM. With `C[C@]1(N)C[C@H]2CN(c3ncc(-c4cccc(Cl)c4Cl)c(N)n3)C[C@H]2C1` [Example 11, (3aR,5r,6aS)-2-(4-amino-5-(2,3-dichlorophenyl)pyrimidin-2-yl)-5-methyloctahydrocyclopenta[c]pyrrol-5-amine], the half-inhibitory concentration (IC50) was below 9 µM. As to `C[C@]1(N)C[C@H]2CN(c3ncc(-c4cccc(F)c4Cl)c(N)n3)C[C@H]2C1` [Example 12, (3aR,5r,6aS)-2-(4-amino-5-(2-chloro-3-fluorophenyl)pyrimidin-2-yl)-5-methyloctahydrocyclopenta[c]pyrrol-5-amine], the IC50 was below 9 µM. With `C[C@]1(N)C[C@H]2CN(c3ncc(-c4cccnc4Cl)c(N)n3)C[C@H]2C1` [Example 13, (3aR,5r,6aS)-2-(4-amino-5-(2-chloropyridin-3-yl)pyrimidin-2-yl)-5-methyloctahydrocyclopenta[c]pyrrol-5-amine], the IC50 was above 10 µM.

For the origin of these results see patent US10435389B2, “Octahydrocyclopenta[c]pyrrole allosteric inhibitors of SHP2” (Krouzon Pharmaceuticals, Inc., priority 2017, dated 2019).
